According to the supplement of paper PMC11208160:

Assay: recombinant UMI read abundance after kanamycin selection (control-corrected) (log10(CPM+1)); higher = more efficient recombination; extreme values may be limits of the assay; sequences stand for … in AGTGCAGAGAAAATCGGCCAGTTTTCTCTGCCTGCAGTCCGCATGCCGTGGGACCCCTTGGGTTCTAACCTGTTGCCTAGATTTATGCAGCGGACTGCCTTTCTCCCAAAGTGATAAACCGG…AGGTTGGTTTCACT; site = the 11-nt donor
Procedure, shortened: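 For the IS621 bridge recombinase, a pooled Escherichia coli screen tested donor and donor-binding-loop pairs. Cells received the pair library together with a target plasmid encoding a fixed target and T7-inducible recombinase, then went onto IPTG (0.07 mM) plus kanamycin or unselected plates in duplicate. After PCR across the donor–target junction and sequencing, recombinant UMI counts were normalized to CPM, averaged, and scaled by control-derived factors. Each value is given as log10(CPM+1).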
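Note: IS621 bridge recombinase in Escherichia coli cells against a fixed T5 target plasmid.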

Sequence	recombinant UMI read abundance (log10)
CTATCATCATGGACCGGTTTTCCCGGTAATCCGTATTTGCT (site CTATCATCTAG)	2.06
CTATCGACATGGACCGGTTTTCCCGGTAATCCGTATTTGTT (site CAATCGACTAA)	0.0124
CTATCGACATGGACCGGTTTTCCCGGTAATCCGTATTTGTT (site CCATCGACTAA)	0.0135
CTATCGACATGGACCGGTTTTCCCGGTAATCCGTATTTGTT (site CGATCGACTAA)	0.0084
CTATCGACATGGACCGGTTTTCCCGGTAATCCGTATTTGTT (site CTATCGACTAA)	1.1
CTATGACCATGGACCGGTTTTCCCGGTAATCCGTATTTGAG (site CTATGACCTCT)	0.00436
CTATGATCATGGACCGGTTTTCCCGGTAATCCGTATTTGAC (site CTAGTATCTGT)	0
CTATGATCATGGACCGGTTTTCCCGGTAATCCGTATTTGAC (site CTATGATCTGT)	2.73
CTATGCACATGGACCGGTTTTCCCGGTAATCCGTATTTGTA (site ATATGCACTTA)	0.00544
CTATGCACATGGACCGGTTTTCCCGGTAATCCGTATTTGTA (site CTATGCACTTA)	1.82
CTATGCACATGGACCGGTTTTCCCGGTAATCCGTATTTGTA (site GTATGCACTTA)	0.00869
CTATGCACATGGACCGGTTTTCCCGGTAATCCGTATTTGTA (site TTATGCACTTA)	0.013
CTATGTTCATGGACCGGTTTTCCCGGTAATCCGTATTTGTC (site CTATGTTCTGA)	2.29
CTATTATCATGGACCGGTTTTCCCGGTAATCCGTATTTGAA (site CTATTATCTTT)	1.79
CTATTATCATGGACCGGTTTTCCCGGTAATCCGTATTTGGC (site CTAGTATCTGT)	0
CTATTATCATGGACCGGTTTTCCCGGTAATCCGTATTTGGC (site CTATTATCTGC)	2.56
CTATTTCCATGGACCGGTTTTCCCGGTAATCCGTATTTGCG (site CTATTTCCTCG)	0.264
CTCAAATCATGGACCGGTTTTCCCGGTAATCCGTATTTGAA (site CTCAAATCTTT)	0.789
CTCAATCCATGGACCGGTTTTCCCGGTAATCCGTATTTGTT (site CGGAATCCTAA)	0
CTCAATCCATGGACCGGTTTTCCCGGTAATCCGTATTTGTT (site CTCAATCCTAA)	1.41
CTCAATGCATGGACCGGTTTTCCCGGTAATCCGTATTTGGG (site CTCAATGCTCC)	0
CTCAGATCATGGACCGGTTTTCCCGGTAATCCGTATTTGCA (site CTCAGATCTTG)	1.82
CTCCAGTCATGGACCGGTTTTCCCGGTAATCCGTATTTGAG (site CTCCAGTCTCT)	0.842
CTCCCAACATGGACCGGTTTTCCCGGTAATCCGTATTTGAG (site CTCCCAACTCT)	0.687
CTCCCAACATGGACCGGTTTTCCCGGTAATCCGTATTTGAG (site CTCCCCACTCT)	0.00702

Sequence	recombinant UMI read abundance (log10)
CTCCCAACATGGACCGGTTTTCCCGGTAATCCGTATTTGAG (site CTCCCGACTCT)	0.0167
CTCCCAACATGGACCGGTTTTCCCGGTAATCCGTATTTGAG (site CTCCCTACTCT)	0.00578
CTCCCTCCATGGACCGGTTTTCCCGGTAATCCGTATTTGAG (site CTCCCTACTCT)	0.00615
CTCCCTCCATGGACCGGTTTTCCCGGTAATCCGTATTTGAG (site CTCCCTCCTCT)	0.0401
CTCCCTCCATGGACCGGTTTTCCCGGTAATCCGTATTTGAG (site CTCCCTGCTCT)	0.009
CTCCCTCCATGGACCGGTTTTCCCGGTAATCCGTATTTGAG (site CTCCCTTCTCT)	0.0108
CTCCTAACATGGACCGGTTTTCCCGGTAATCCGTATTTGGA (site CTACTAACTTC)	0.00356
CTCCTAACATGGACCGGTTTTCCCGGTAATCCGTATTTGGA (site CTCCTAACTTC)	0.655
CTCCTAACATGGACCGGTTTTCCCGGTAATCCGTATTTGGA (site CTGCTAACTTC)	0.0178
CTCCTAACATGGACCGGTTTTCCCGGTAATCCGTATTTGGA (site CTTCTAACTTC)	0.0149
CTCCTTACATGGACCGGTTTTCCCGGTAATCCGTATTTGAG (site CTCCATACTCT)	0
CTCCTTACATGGACCGGTTTTCCCGGTAATCCGTATTTGAG (site CTCCCTACTCT)	0.00731
CTCCTTACATGGACCGGTTTTCCCGGTAATCCGTATTTGAG (site CTCCGTACTCT)	0
CTCCTTACATGGACCGGTTTTCCCGGTAATCCGTATTTGAG (site CTCCTTACTCT)	0.201
CTCGACACATGGACCGGTTTTCCCGGTAATCCGTATTTGGA (site CTCGACACTTC)	0.942
CTCGCTACATGGACCGGTTTTCCCGGTAATCCGTATTTGAG (site CTCACTACTCT)	0.085
CTCGCTACATGGACCGGTTTTCCCGGTAATCCGTATTTGAG (site CTCCCTACTCT)	0.00726
CTCGCTACATGGACCGGTTTTCCCGGTAATCCGTATTTGAG (site CTCGCTACTCT)	1.03
CTCGCTACATGGACCGGTTTTCCCGGTAATCCGTATTTGAG (site CTCTCTACTCT)	0.139
CTCGGCCCATGGACCGGTTTTCCCGGTAATCCGTATTTGTT (site CACGGCCCTAA)	0.0311
CTCGGCCCATGGACCGGTTTTCCCGGTAATCCGTATTTGTT (site CCCGGCCCTAA)	0.0244
CTCGGCCCATGGACCGGTTTTCCCGGTAATCCGTATTTGTT (site CGCGGCCCTAA)	0.0316
CTCGGCCCATGGACCGGTTTTCCCGGTAATCCGTATTTGTT (site CTCGGCCCTAA)	0.0107
CTCGGCGCATGGACCGGTTTTCCCGGTAATCCGTATTTGCC (site CTCGGCGCTGG)	2.12
CTCGGGCCATGGACCGGTTTTCCCGGTAATCCGTATTTGTG (site CTCGGGCCTCA)	0

Sequence	recombinant UMI read abundance (log10)
CTCGTATCATGGACCGGTTTTCCCGGTAATCCGTATTTGTC (site CTAGTATCTGT)	0
CTCGTATCATGGACCGGTTTTCCCGGTAATCCGTATTTGTC (site CTCGTATCTGA)	2.69
CTCGTCCCATGGACCGGTTTTCCCGGTAATCCGTATTTGTA (site CTCGTCCCTTA)	1.66
CTCGTTACATGGACCGGTTTTCCCGGTAATCCGTATTTGTG (site CTCGTTACTCA)	0.783
CTCTACACATGGACCGGTTTTCCCGGTAATCCGTATTTGCG (site CTCTACACTAG)	0.613
CTCTACACATGGACCGGTTTTCCCGGTAATCCGTATTTGCG (site CTCTACACTCG)	1.73
CTCTACACATGGACCGGTTTTCCCGGTAATCCGTATTTGCG (site CTCTACACTGG)	0.00583
CTCTACACATGGACCGGTTTTCCCGGTAATCCGTATTTGCG (site CTCTACACTTG)	0.829
CTCTACGCATGGACCGGTTTTCCCGGTAATCCGTATTTGCT (site CTCTACACTAG)	0.475
CTCTACGCATGGACCGGTTTTCCCGGTAATCCGTATTTGCT (site CTCTACCCTAG)	0
CTCTACGCATGGACCGGTTTTCCCGGTAATCCGTATTTGCT (site CTCTACGCTAG)	0.572
CTCTACGCATGGACCGGTTTTCCCGGTAATCCGTATTTGCT (site CTCTACTCTAG)	2.89
CTCTCCTCATGGACCGGTTTTCCCGGTAATCCGTATTTGCC (site CACTCCTCTGG)	2.68
CTCTCCTCATGGACCGGTTTTCCCGGTAATCCGTATTTGCC (site CCCTCCTCTGG)	2.6
CTCTCCTCATGGACCGGTTTTCCCGGTAATCCGTATTTGCC (site CGCTCCTCTGG)	2.57
CTCTCCTCATGGACCGGTTTTCCCGGTAATCCGTATTTGCC (site CTCTCCTCTGG)	2.63
CTCTGGACATGGACCGGTTTTCCCGGTAATCCGTATTTGGA (site TGAGTCTCTCA)	0
CTCTTGGCATGGACCGGTTTTCCCGGTAATCCGTATTTGGA (site CACTTGGCTTC)	0.273
CTCTTGGCATGGACCGGTTTTCCCGGTAATCCGTATTTGGA (site CCCTTGGCTTC)	0.169
CTCTTGGCATGGACCGGTTTTCCCGGTAATCCGTATTTGGA (site CGCTTGGCTTC)	0.00297
CTCTTGGCATGGACCGGTTTTCCCGGTAATCCGTATTTGGA (site CTCTTGGCTTC)	0.529
CTGAATCCATGGACCGGTTTTCCCGGTAATCCGTATTTGTG (site CGGAATCCTAA)	0.00601
CTGAATCCATGGACCGGTTTTCCCGGTAATCCGTATTTGTG (site CTGAATCCTCA)	0.684
CTGACCTCATGGACCGGTTTTCCCGGTAATCCGTATTTGTA (site CTGACCTCTTA)	2.34
CTGAGATCATGGACCGGTTTTCCCGGTAATCCGTATTTGTA (site CTGAGATCTTA)	2.8
